Reference: US7115599B2, “Sulfonamide-substituted pyrazolopyridine compounds” (Bayer Aktiengesellschaft, priority 2000, dated 2006)

Test system: rabbit aorta rings
Assay: Vasorelaxant effect in vitro (phenylephrine-contracted rabbit aortic rings)
Settings: Oryctolagus cuniculus; concentration reducing height of phenylephrine-induced contraction of rabbit aorta rings by 50%; 0.1% DMSO, 37° C.
Experimental: Rabbits are stunned by a blow to the back of the neck and are exsanguinated. The aorta is removed, freed of adherent tissue, divided into rings 1.5 mm wide and put singly under tension in 5 ml organ baths containing carbogen-gassed Krebs-Henseleit solution at 37° C. with the following composition (mM): NaCl: 119; KCl: 4.8; CaCl2×2H2O: 1; MgSO4×7H2O: 1.4; KH2PO4: 1.2; NaHCO3: 25; glucose: 10. The force of contraction is detected with Statham UC2 cells, amplified and digitized via A/D converters (DAS-1802 HC, Keithley Instruments Munich) and recorded in parallel on chart recorders. A contraction is generated by adding phenylephrine to the bath cumulatively in increasing concentration. After several control cycles, the substance to be investigated is investigated in each further run in increasing dosage in each case, and the height of the contraction is compared with the height of the contraction reached in the last preceding run. The concentration necessary to reduce the height of the control value by 50% (IC50) is calculated from this. The standard application volume is 5 μl, and the DMSO content in the bath solution corresponds to 0.1%.

IC50 | Structure (SMILES)
350 nM | Nc1nc(-c2nn(Cc3ccccc3F)c3ncccc23)nc(N)c1N1CCCS1(=O)=O [Example 3, 5-(1,1-Dioxido-2-isothiazolidinyl)-2-[1-(2-fluorobenzyl)-1H-pyrazolo[3,4-b]pyridin-3-yl]-4,6-pyrimidineamine]
290 nM | Nc1nc(-c2nn(Cc3ccccc3F)c3ncccc23)nc(Cl)c1N1CCCS1(=O)=O [Example 1, 6-Chloro-5-(1,1-dioxido-2-isothiazolidinyl)-2-[1-(2-fluorobenzyl)-1H-pyrazolo[3,4-b]pyridin-3-yl]-4-pyrimidinediamine]
